According to patent publication US8969516B2, “Method of hydrolysis of peptide bond” (priority 2006, dated 2015):

Test: MALDI-TOF screening of Ni^2+ dependent hydrolysis in a combinatorial peptide library
Format: physicochemical
Conditions: CH3CO-Gly-Ala-Thr-X-His-Z-Lys-Phe-Leu-NH2 library, Ni^2+ 2 mM, pH 8.2, 10 mM Tris, score=24/tm
Procedure, shortened: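 MALDI-TOF read-out: appearance of Ser/Thr-X-His-Z-Lys-Phe-Leu-NH2 product signals, plus loss of substrate signals, checked by eye at 2, 4, 6, 8 h. Conditions: 1 mM peptide mixture, 2 mM Ni2+, 10 mM Tris pH 8.2, 37 or 45 °C.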

Ac-GATAHLKFL-NH2 [TAHL]
hydrolysis score from MALDI-TOF screening (37° C.): 0 (a score of 0 if no trace of the product of hydrolysis was seen after 8 hours of incubation) | hydrolysis score from MALDI-TOF screening (45° C.): 0 (a score of 0 if no trace of the product of hydrolysis was seen after 8 hours of incubation)

Ac-GATAHMKFL-NH2 [TAHM]
hydrolysis score from MALDI-TOF screening (37° C.): 0 (a score of 0 if no trace of the product of hydrolysis was seen after 8 hours of incubation) | hydrolysis score from MALDI-TOF screening (45° C.): 0 (a score of 0 if no trace of the product of hydrolysis was seen after 8 hours of incubation)

Ac-GATAHNKFL-NH2 [TAHN]
hydrolysis score from MALDI-TOF screening (37° C.): 0 (a score of 0 if no trace of the product of hydrolysis was seen after 8 hours of incubation) | hydrolysis score from MALDI-TOF screening (45° C.): 0 (a score of 0 if no trace of the product of hydrolysis was seen after 8 hours of incubation)

Ac-GATAHPKFL-NH2 [TAHP]
hydrolysis score from MALDI-TOF screening (37° C.): 0 (a score of 0 if no trace of the product of hydrolysis was seen after 8 hours of incubation) | hydrolysis score from MALDI-TOF screening (45° C.): 0 (a score of 0 if no trace of the product of hydrolysis was seen after 8 hours of incubation)

Ac-GATAHQKFL-NH2 [TAHQ]
hydrolysis score from MALDI-TOF screening (37° C.): 0 (a score of 0 if no trace of the product of hydrolysis was seen after 8 hours of incubation) | hydrolysis score from MALDI-TOF screening (45° C.): 0 (a score of 0 if no trace of the product of hydrolysis was seen after 8 hours of incubation)

Ac-GATAHRKFL-NH2 [TAHR]
hydrolysis score from MALDI-TOF screening (37° C.): 0 (a score of 0 if no trace of the product of hydrolysis was seen after 8 hours of incubation) | hydrolysis score from MALDI-TOF screening (45° C.): 0 (a score of 0 if no trace of the product of hydrolysis was seen after 8 hours of incubation)

Ac-GATAHSKFL-NH2 [TAHS]
hydrolysis score from MALDI-TOF screening (37° C.): 0 (a score of 0 if no trace of the product of hydrolysis was seen after 8 hours of incubation) | hydrolysis score from MALDI-TOF screening (45° C.): 0 (a score of 0 if no trace of the product of hydrolysis was seen after 8 hours of incubation)

Ac-GATAHTKFL-NH2 [TAHT]
hydrolysis score from MALDI-TOF screening (37° C.): 0 (a score of 0 if no trace of the product of hydrolysis was seen after 8 hours of incubation) | hydrolysis score from MALDI-TOF screening (45° C.): 0 (a score of 0 if no trace of the product of hydrolysis was seen after 8 hours of incubation)

Ac-GATAHVKFL-NH2 [TAHV]
hydrolysis score from MALDI-TOF screening (37° C.): 0 (a score of 0 if no trace of the product of hydrolysis was seen after 8 hours of incubation) | hydrolysis score from MALDI-TOF screening (45° C.): 0 (a score of 0 if no trace of the product of hydrolysis was seen after 8 hours of incubation)

Ac-GATAHYKFL-NH2 [TAHY]
hydrolysis score from MALDI-TOF screening (37° C.): 0 (a score of 0 if no trace of the product of hydrolysis was seen after 8 hours of incubation) | hydrolysis score from MALDI-TOF screening (45° C.): 0 (a score of 0 if no trace of the product of hydrolysis was seen after 8 hours of incubation)

Ac-GATFHAKFL-NH2 [TFHA]
hydrolysis score from MALDI-TOF screening (37° C.): 0 (a score of 0 if no trace of the product of hydrolysis was seen after 8 hours of incubation) | hydrolysis score from MALDI-TOF screening (45° C.): 0 (a score of 0 if no trace of the product of hydrolysis was seen after 8 hours of incubation)

Ac-GATFHDKFL-NH2 [TFHD]
hydrolysis score from MALDI-TOF screening (37° C.): 0 (a score of 0 if no trace of the product of hydrolysis was seen after 8 hours of incubation) | hydrolysis score from MALDI-TOF screening (45° C.): 0 (a score of 0 if no trace of the product of hydrolysis was seen after 8 hours of incubation)

Ac-GATFHEKFL-NH2 [TFHE]
hydrolysis score from MALDI-TOF screening (37° C.): 0 (a score of 0 if no trace of the product of hydrolysis was seen after 8 hours of incubation) | hydrolysis score from MALDI-TOF screening (45° C.): 0 (a score of 0 if no trace of the product of hydrolysis was seen after 8 hours of incubation)

Ac-GATFHFKFL-NH2 [TFHF]
hydrolysis score from MALDI-TOF screening (37° C.): 0 (a score of 0 if no trace of the product of hydrolysis was seen after 8 hours of incubation) | hydrolysis score from MALDI-TOF screening (45° C.): 0 (a score of 0 if no trace of the product of hydrolysis was seen after 8 hours of incubation)

Ac-GATFHGKFL-NH2 [TFHG]
hydrolysis score from MALDI-TOF screening (37° C.): 0 (a score of 0 if no trace of the product of hydrolysis was seen after 8 hours of incubation) | hydrolysis score from MALDI-TOF screening (45° C.): 0 (a score of 0 if no trace of the product of hydrolysis was seen after 8 hours of incubation)

Ac-GATFHHKFL-NH2 [TFHH]
hydrolysis score from MALDI-TOF screening (37° C.): 0 (a score of 0 if no trace of the product of hydrolysis was seen after 8 hours of incubation) | hydrolysis score from MALDI-TOF screening (45° C.): 0 (a score of 0 if no trace of the product of hydrolysis was seen after 8 hours of incubation)

Ac-GATFHKKFL-NH2 [TFHK]
hydrolysis score from MALDI-TOF screening (37° C.): 3 (a score of 3 for detection at 8 hours) | hydrolysis score from MALDI-TOF screening (45° C.): 3 (a score of 3 for detection at 8 hours)

Ac-GATFHLKFL-NH2 [TFHL]
hydrolysis score from MALDI-TOF screening (37° C.): 0 (a score of 0 if no trace of the product of hydrolysis was seen after 8 hours of incubation) | hydrolysis score from MALDI-TOF screening (45° C.): 0 (a score of 0 if no trace of the product of hydrolysis was seen after 8 hours of incubation)

Ac-GATFHMKFL-NH2 [TFHM]
hydrolysis score from MALDI-TOF screening (37° C.): 0 (a score of 0 if no trace of the product of hydrolysis was seen after 8 hours of incubation) | hydrolysis score from MALDI-TOF screening (45° C.): 0 (a score of 0 if no trace of the product of hydrolysis was seen after 8 hours of incubation)

Ac-GATFHNKFL-NH2 [TFHN]
hydrolysis score from MALDI-TOF screening (37° C.): 0 (a score of 0 if no trace of the product of hydrolysis was seen after 8 hours of incubation) | hydrolysis score from MALDI-TOF screening (45° C.): 0 (a score of 0 if no trace of the product of hydrolysis was seen after 8 hours of incubation)

Ac-GATFHPKFL-NH2 [TFHP]
hydrolysis score from MALDI-TOF screening (37° C.): 0 (a score of 0 if no trace of the product of hydrolysis was seen after 8 hours of incubation) | hydrolysis score from MALDI-TOF screening (45° C.): 0 (a score of 0 if no trace of the product of hydrolysis was seen after 8 hours of incubation)

Ac-GATFHQKFL-NH2 [TFHQ]
hydrolysis score from MALDI-TOF screening (37° C.): 0 (a score of 0 if no trace of the product of hydrolysis was seen after 8 hours of incubation) | hydrolysis score from MALDI-TOF screening (45° C.): 0 (a score of 0 if no trace of the product of hydrolysis was seen after 8 hours of incubation)

Ac-GATFHRKFL-NH2 [TFHR]
hydrolysis score from MALDI-TOF screening (37° C.): 3 (a score of 3 for detection at 8 hours) | hydrolysis score from MALDI-TOF screening (45° C.): 4 (a score of 4 for detection at 6 hours)

Ac-GATFHSKFL-NH2 [TFHS]
hydrolysis score from MALDI-TOF screening (37° C.): 0 (a score of 0 if no trace of the product of hydrolysis was seen after 8 hours of incubation) | hydrolysis score from MALDI-TOF screening (45° C.): 0 (a score of 0 if no trace of the product of hydrolysis was seen after 8 hours of incubation)

Ac-GATFHTKFL-NH2 [TFHT]
hydrolysis score from MALDI-TOF screening (37° C.): 0 (a score of 0 if no trace of the product of hydrolysis was seen after 8 hours of incubation) | hydrolysis score from MALDI-TOF screening (45° C.): 0 (a score of 0 if no trace of the product of hydrolysis was seen after 8 hours of incubation)

Ac-GATFHVKFL-NH2 [TFHV]
hydrolysis score from MALDI-TOF screening (37° C.): 0 (a score of 0 if no trace of the product of hydrolysis was seen after 8 hours of incubation) | hydrolysis score from MALDI-TOF screening (45° C.): 0 (a score of 0 if no trace of the product of hydrolysis was seen after 8 hours of incubation)

Ac-GATFHYKFL-NH2 [TFHY]
hydrolysis score from MALDI-TOF screening (37° C.): 0 (a score of 0 if no trace of the product of hydrolysis was seen after 8 hours of incubation) | hydrolysis score from MALDI-TOF screening (45° C.): 0 (a score of 0 if no trace of the product of hydrolysis was seen after 8 hours of incubation)

Ac-GATGHAKFL-NH2 [TGHA]
hydrolysis score from MALDI-TOF screening (37° C.): 0 (a score of 0 if no trace of the product of hydrolysis was seen after 8 hours of incubation) | hydrolysis score from MALDI-TOF screening (45° C.): 0 (a score of 0 if no trace of the product of hydrolysis was seen after 8 hours of incubation)

Ac-GATGHDKFL-NH2 [TGHD]
hydrolysis score from MALDI-TOF screening (37° C.): 0 (a score of 0 if no trace of the product of hydrolysis was seen after 8 hours of incubation) | hydrolysis score from MALDI-TOF screening (45° C.): 0 (a score of 0 if no trace of the product of hydrolysis was seen after 8 hours of incubation)

Ac-GATGHEKFL-NH2 [TGHE]
hydrolysis score from MALDI-TOF screening (37° C.): 0 (a score of 0 if no trace of the product of hydrolysis was seen after 8 hours of incubation) | hydrolysis score from MALDI-TOF screening (45° C.): 0 (a score of 0 if no trace of the product of hydrolysis was seen after 8 hours of incubation)

Ac-GATGHGKFL-NH2 [TGHG]
hydrolysis score from MALDI-TOF screening (37° C.): 0 (a score of 0 if no trace of the product of hydrolysis was seen after 8 hours of incubation) | hydrolysis score from MALDI-TOF screening (45° C.): 0 (a score of 0 if no trace of the product of hydrolysis was seen after 8 hours of incubation)

Ac-GATGHHKFL-NH2 [TGHH]
hydrolysis score from MALDI-TOF screening (37° C.): 0 (a score of 0 if no trace of the product of hydrolysis was seen after 8 hours of incubation) | hydrolysis score from MALDI-TOF screening (45° C.): 0 (a score of 0 if no trace of the product of hydrolysis was seen after 8 hours of incubation)

Ac-GATGHIKFL-NH2 [TGHI]
hydrolysis score from MALDI-TOF screening (37° C.): 0 (a score of 0 if no trace of the product of hydrolysis was seen after 8 hours of incubation) | hydrolysis score from MALDI-TOF screening (45° C.): 0 (a score of 0 if no trace of the product of hydrolysis was seen after 8 hours of incubation)

Ac-GATGHKKFL-NH2 [TGHK]
hydrolysis score from MALDI-TOF screening (37° C.): 0 (a score of 0 if no trace of the product of hydrolysis was seen after 8 hours of incubation) | hydrolysis score from MALDI-TOF screening (45° C.): 0 (a score of 0 if no trace of the product of hydrolysis was seen after 8 hours of incubation)

Ac-GATGHLKFL-NH2 [TGHL]
hydrolysis score from MALDI-TOF screening (37° C.): 0 (a score of 0 if no trace of the product of hydrolysis was seen after 8 hours of incubation) | hydrolysis score from MALDI-TOF screening (45° C.): 0 (a score of 0 if no trace of the product of hydrolysis was seen after 8 hours of incubation)

Ac-GATGHMKFL-NH2 [TGHM]
hydrolysis score from MALDI-TOF screening (37° C.): 0 (a score of 0 if no trace of the product of hydrolysis was seen after 8 hours of incubation) | hydrolysis score from MALDI-TOF screening (45° C.): 0 (a score of 0 if no trace of the product of hydrolysis was seen after 8 hours of incubation)

Ac-GATGHNKFL-NH2 [TGHN]
hydrolysis score from MALDI-TOF screening (37° C.): 0 (a score of 0 if no trace of the product of hydrolysis was seen after 8 hours of incubation) | hydrolysis score from MALDI-TOF screening (45° C.): 0 (a score of 0 if no trace of the product of hydrolysis was seen after 8 hours of incubation)
